From US11065293B2 (priority 2016, dated 2021)

Legend:
Format in all cases: in vivo, rats
[1] = tail flick latency after Taxol-induced pain; details: Taxol 20 mg/kg day 0 to day 5; day 3, day 7 and day 14; composition 21 days twice daily, vs contrast group
Description: To understand the effect of presented pharmaceutical composition on cancer pain, the experiment was following: 6 to 7 week-old female rats (20-24 grams, ICR) were divided into control group, contrast group and experimental group. […] In contrast group and experimental group, rats were administered Taxol® (20 mg/kg) from day 0 to day 5 to induce the pain. Besides, the experimental group were also treated with presented pharmaceutical composition for 7 days before administered Taxol®, and continuously treated for 14 days after administered Taxol®. Therefore, the total days of presented pharmaceutical composition administered in experimental group is 21 days. The administered method is twice daily, and the dosage was 0.5-1.67 uL/mouse. On day 3, 7 and 14 during the drug administration, the tail flick latency (Tail-Flick Unit 37360) was conducted. The tail flick latency is used to evaluate the degree of change of pain threshold by heating the tail of rat through infrared.

[2] = organ weight after Taxol administration; details: day 15, contrast group (Taxol) vs control group, experimental group even lower than control group
From the text: Cancer pain is a kind of pain caused by cancer, which is most common symptoms and most feared symptoms for patients. If the pain is not controlled properly, the life quality of patients would be affected severely. To understand the effect of presented pharmaceutical composition on cancer pain, the experiment was following: 6 to 7 week-old female rats (20-24 grams, ICR) were divided into control group, contrast group and experimental group. In control group, rats were not gave any medication. In contrast group and experimental group, rats were administered Taxol® (20 mg/kg) from day 0 to day 5 to induce the pain. Besides, the experimental group were also treated with presented pharmaceutical composition for 7 days before administered Taxol®, and continuously treated for 14 days after administered Taxol®. Therefore, the total days of presented pharmaceutical composition administered in experimental group is 21 days. The administered method is twice daily, and the dosage was 0.5-1.67 uL/mouse. On day 3, 7 and 14 during the drug administration, the tail flick latency (Tail-Flick Unit 37360) was conducted. The tail flick latency is used to evaluate the degree of change of pain threshold by heating the tail of rat through infrared.
Organ hypertrophy is common side effect induced by chemotherapy drugs. To understand the impact of the presented pharmaceutical compositions on organs, the female rats of example 5 were sacrificed on day 15. The heart, liver, spleen and kidney acquired from rats were weighted respectively.

white blood cells = details: for the numbers of white blood cell, Day 0 before chemotherapy: day 0 before cyclophosphamide, experimental group pretreated 5 days with composition, disease and contrast groups not yet treated; for the numbers of white blood cell, Day 4 after chemotherapy: day 4 after cyclophosphamide, G-CSF on day 2 to day 4, composition twice daily 0.5-1.67 uL/mouse; for the numbers of white blood cell, Day 7 after chemotherapy: day 7 after cyclophosphamide; for the numbers of white blood cell, Day 10 after chemotherapy: day 10 after cyclophosphamide; for numbers of white blood cell (in words): disease group vs normal group, contrast group on day 7 and day 10, experimental group vs contrast group after chemotherapy
From the text: Furthermore, a common side effect of chemotherapy is a drop in the number of white blood cells, which leads to an increased risk of getting an infection. Currently, granulocyte colony stimulating factor (G-CSF) treatment can make white blood cell levels go up faster. However, patients may have one or more side effects of using G-CSF. To understand the effect of present pharmaceutical composition on white blood cells, cyclophosphamide-induced leukopenia experiment execute as follows: 6 to 7 week-old female rats (20-24 grams, ICR) were divided into normal group, disease group, contrast group and experimental group. In normal group, rats were not gave any medication. In disease, contrast and experimental group, rats were administered cyclophosphamide on day 0 to induce leukopenia. Besides, in contrast group, rats were also administered G-CSF on day 2 to day 4. In experimental group, rats were treated with presented pharmaceutical composition for 5 days before administered cyclophosphamide, and continuously treated for 10 days after administered cyclophosphamid. Therefore, the total days of presented pharmaceutical composition administered in experimental group is 15 days. The administered method of presented pharmaceutical composition is twice daily, and the dosage was 0.5-1.67 uL/mouse. The rats in each group were phlebotomized on day 0 before chemotherapy, and on day 4, day 7 and day 10 after chemotherapy.

Row | Molecule | tail flick latency [1] | heart weight ([2]; FIG. 8A) | liver weight ([2]; FIG. 8B) | spleen weight ([2]; FIG. 8C) | kidney weight ([2]; FIG. 8D) | the numbers of white blood cell, Day 0 before chemotherapy (white blood cells) | the numbers of white blood cell, Day 4 after chemotherapy (white blood cells) | the numbers of white blood cell, Day 7 after chemotherapy (white blood cells) | the numbers of white blood cell, Day 10 after chemotherapy (white blood cells) | numbers of white blood cell (in words) (white blood cells)
1 | CC(=O)O[C@H]1C(=O)[C@@]2(C)[C@H]([C@H](OC(=O)c3ccccc3)[C@]3(O)C[C@H](OC(=O)[C@H](O)[C@@H](NC(=O)c4ccccc4)c4ccccc4)C(C)=C1C3(C)C)[C@]1(OC(C)=O)CO[C@@H]1C[C@@H]2O [Taxol®] | lower | significantly heavier | significantly heavier | significantly heavier | significantly heavier | – | – | – | – | –
2 | O=P1(N(CCCl)CCCl)NCCCO1 (stereo not drawn) [cyclophosphamide] | – | – | – | – | – | 887 | 56 | 333 | 772 | extremely reduced
3 | G-CSF: granulocyte colony stimulating factor, given day 2 to day 4 after cyclophosphamide; contrast group of leukopenia experiment (protein, UniProt P09919 31-207, looked up) Granulocyte …: TPLGPASSLPQSFLLKCLEQVRKIQGDGAALQEKLVSECATYKLCHPEELVLLGHSLGIPWAPLSSCPSQALQLAGCLSQLHSGLFLYQGLLQALEGISPELGPTLDTLQLDVADFATTIWQQMEELGMAPALQPTQGAMPAFASAFQRRAGGVLVASHLQSFLEVSYRVLRHLAQP | – | – | – | – | – | 843 | 51 | 528 | 768 | increase
